Results published in ChEMBL document CHEMBL4680147, “Discovery of 6'-chloro-N-methyl-5'-(phenylsulfonamido)-[3,3'-bipyridine]-5-carboxamide (CHMFL-PI4K-127) as a novel Plasmodium falciparum PI(4)K inhibitor with potent antimalarial activity against both blood and liver stages of Plasmodium” (Eur J Med Chem, 2020).
Active and inactive are the calls of the source. The calls are words filed in the database; no cut-off is given here.

What was measured:
[1] = Tmax in mouse at 10 mg/kg, po; type: ADME, organism-based; conditions: in vivo
[2] = AUC(0 to infinity) in Sprague-Dawley rat at 1 mg/kg, iv; type: ADME, organism-based; design: time infinity, route intravenous, dose 1 mg/kg; conditions: in vivo
[3] = Mean residence time (0 to t) in Sprague-Dawley rat at 10 mg/kg, po; type: ADME, organism-based; conditions: in vivo
Plasmodium falciparum [4] = experiment: Antimalarial activity against chloroquine resistant Plasmodium falciparum D10 infected in human O+ erythrocytes incubated for 72 hrs by SYBR Green 1 dye based fluorescence assay; type: functional, organism-based; conditions: D10, Erythrocyte
[5] = Mean residence time (0 to t) in mouse at 10 mg/kg, po; type: ADME, organism-based; conditions: in vivo
[6] = Apparent clearance in Sprague-Dawley rat at 1 mg/kg, iv; type: ADME, organism-based; conditions: in vivo, read-out: CL(app) (converted)
Plasmodium falciparum [7] = experiment: Antimalarial activity against pyrimethamine/chloroquine resistant Plasmodium falciparum PC26 infected in human O+ erythrocytes incubated for 72 hrs by SYBR Green 1 dye based fluorescence assay; type: functional, organism-based; conditions: PC26, Erythrocyte
[8] = Selectivity index, ratio of IC50 for human PI4K3alpha to IC50 for recombinant His-tagged Plasmodium falciparum 3D7 PI4K expressed in baculovirus infected Sf9 cells
Plasmodium berghei = experiment: Antimalarial activity against […] luciferase-expressing Plasmodium berghei sporozoites infected in BALB/c mouse assessed as suppression of parasitemia at 1 to 15 mg/kg, po treated for 2 hrs followed by parasite infection and measured upto 8 days post-infection by luciferase based real-time imaging analysis; type: functional, organism-based; conditions: dose 1-15 mg/kg, time 194.0 hrs
[9] = AUC(0 to infinity) in mouse at 1 mg/kg, iv; type: ADME, organism-based; design: time infinity, route intravenous, dose 1 mg/kg; conditions: in vivo
[10] = Inhibition of human PIK3C2alpha by ADP-Glo kinase assay
[11] = Selectivity index, ratio of EC50 for antimalarial activity against Plasmodium falciparum harboring PI4K Y1342I/T1360A mutant infected in human O+ erythrocytes to EC50 for antimalarial activity against Plasmodium falciparum harboring PI4K Y1342I mutant infected in human O+ erythrocytes; type: functional
Plasmodium falciparum [12] = experiment: Antimalarial activity against blood stage Plasmodium falciparum harboring PI4K Y1342I mutant infected in human O+ erythrocytes incubated for 72 hrs by SYBR Green 1 dye based fluorescence assay; type: functional, organism-based; conditions: Erythrocyte
[13] = Apparent clearance in Sprague-Dawley rat at 10 mg/kg, po; type: ADME, organism-based; conditions: in vivo, read-out: CL(app) (converted)
[14] = Tmax in mouse at 1 mg/kg, iv; type: ADME, organism-based; conditions: in vivo
Plasmodium falciparum [15] = experiment: Antimalarial activity against sulphadoxine-resistant blood stage Plasmodium falciparum 3D7 infected in human O+ erythrocytes incubated for 72 hrs by SYBR Green 1 dye based fluorescence assay; type: functional, organism-based; conditions: 3D7, Erythrocyte
Plasmodium falciparum [16] = experiment: Antimalarial activity against pyrimethamine/chloroquine resistant Plasmodium falciparum CP286 infected in human O+ erythrocytes incubated for 72 hrs by SYBR Green 1 dye based fluorescence assay; type: functional, organism-based; conditions: CP286, Erythrocyte
[17] = target: Phosphatidylinositol 4-kinase alpha (Homo sapiens, UniProt P42356); experiment: Inhibition of human PI4K3alpha by ADP-Glo kinase assay
Chain of Phosphatidylinositol 4-kinase alpha (P42356 whole entry): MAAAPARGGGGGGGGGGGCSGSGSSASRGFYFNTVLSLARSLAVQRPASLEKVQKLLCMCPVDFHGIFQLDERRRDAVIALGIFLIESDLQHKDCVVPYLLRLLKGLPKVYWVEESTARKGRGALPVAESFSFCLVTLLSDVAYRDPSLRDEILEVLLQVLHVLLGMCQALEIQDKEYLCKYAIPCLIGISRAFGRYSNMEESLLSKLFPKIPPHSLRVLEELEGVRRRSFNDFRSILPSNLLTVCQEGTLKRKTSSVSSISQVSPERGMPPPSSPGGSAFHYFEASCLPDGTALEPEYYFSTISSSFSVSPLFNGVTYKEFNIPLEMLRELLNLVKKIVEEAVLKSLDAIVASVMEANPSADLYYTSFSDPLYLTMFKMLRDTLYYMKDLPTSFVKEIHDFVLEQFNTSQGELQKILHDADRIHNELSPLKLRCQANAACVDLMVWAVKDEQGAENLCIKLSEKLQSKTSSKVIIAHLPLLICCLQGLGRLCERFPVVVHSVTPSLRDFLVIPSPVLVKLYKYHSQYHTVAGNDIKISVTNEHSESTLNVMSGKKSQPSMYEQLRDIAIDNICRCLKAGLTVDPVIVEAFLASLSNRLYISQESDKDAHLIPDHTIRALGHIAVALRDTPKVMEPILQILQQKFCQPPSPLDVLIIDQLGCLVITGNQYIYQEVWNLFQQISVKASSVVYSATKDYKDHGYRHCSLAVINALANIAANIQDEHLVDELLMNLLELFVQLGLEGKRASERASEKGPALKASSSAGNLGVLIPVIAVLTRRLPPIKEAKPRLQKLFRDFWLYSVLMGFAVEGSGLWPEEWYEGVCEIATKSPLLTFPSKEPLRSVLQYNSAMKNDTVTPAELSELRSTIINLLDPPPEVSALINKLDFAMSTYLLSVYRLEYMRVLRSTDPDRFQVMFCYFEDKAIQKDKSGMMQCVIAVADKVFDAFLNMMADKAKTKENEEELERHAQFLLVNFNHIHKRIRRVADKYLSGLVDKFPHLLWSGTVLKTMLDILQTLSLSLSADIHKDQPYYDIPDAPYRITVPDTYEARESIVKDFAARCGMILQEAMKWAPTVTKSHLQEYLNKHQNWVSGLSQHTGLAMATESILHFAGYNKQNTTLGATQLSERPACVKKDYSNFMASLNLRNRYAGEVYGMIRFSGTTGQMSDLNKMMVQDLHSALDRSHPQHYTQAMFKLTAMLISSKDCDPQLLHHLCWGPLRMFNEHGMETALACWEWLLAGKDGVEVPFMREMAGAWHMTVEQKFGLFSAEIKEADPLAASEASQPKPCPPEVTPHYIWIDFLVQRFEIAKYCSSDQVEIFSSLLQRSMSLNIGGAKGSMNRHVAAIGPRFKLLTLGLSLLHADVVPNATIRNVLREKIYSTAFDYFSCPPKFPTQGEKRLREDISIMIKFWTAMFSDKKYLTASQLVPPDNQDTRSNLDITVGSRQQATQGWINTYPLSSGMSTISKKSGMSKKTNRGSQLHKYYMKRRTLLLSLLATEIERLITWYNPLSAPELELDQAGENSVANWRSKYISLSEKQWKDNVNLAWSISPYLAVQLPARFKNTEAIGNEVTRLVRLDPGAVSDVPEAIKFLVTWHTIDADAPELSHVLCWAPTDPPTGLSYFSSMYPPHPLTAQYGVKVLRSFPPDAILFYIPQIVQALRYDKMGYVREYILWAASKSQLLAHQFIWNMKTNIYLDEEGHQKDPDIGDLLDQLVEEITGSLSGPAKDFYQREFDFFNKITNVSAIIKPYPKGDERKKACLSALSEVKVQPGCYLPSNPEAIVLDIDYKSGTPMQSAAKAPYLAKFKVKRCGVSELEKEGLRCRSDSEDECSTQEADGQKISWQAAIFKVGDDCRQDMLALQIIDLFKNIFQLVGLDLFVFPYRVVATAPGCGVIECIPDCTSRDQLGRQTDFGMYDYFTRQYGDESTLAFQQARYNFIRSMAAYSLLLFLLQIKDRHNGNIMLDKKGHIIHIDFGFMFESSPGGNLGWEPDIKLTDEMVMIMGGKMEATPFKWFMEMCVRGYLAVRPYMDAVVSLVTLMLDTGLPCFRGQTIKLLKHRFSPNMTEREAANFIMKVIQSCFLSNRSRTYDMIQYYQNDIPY

[18] = Apparent volume of distribution in Sprague-Dawley rat at 1 mg/kg, iv; type: ADME, organism-based; conditions: in vivo, read-out: Vz
[19] = AUC(0 to t) in Sprague-Dawley rat at 10 mg/kg, po; type: ADME, organism-based; design: dose 10 mg/kg; conditions: in vivo
[20] = Cmax in mouse at 10 mg/kg, po; type: ADME, organism-based; design: route oral, dose 10 mg/kg; conditions: in vivo
[21] = target: Phosphatidylinositol 4,5-bisphosphate 3-kinase catalytic subunit gamma isoform (Homo sapiens, UniProt P48736); experiment: Inhibition of human PI3Kgamma by ADP-Glo kinase assay
[22] = Selectivity index, ratio of IC50 for human VPS34 to IC50 for recombinant His-tagged Plasmodium falciparum 3D7 PI4K expressed in baculovirus infected Sf9 cells
[23] = Selectivity index, ratio of EC50 for antimalarial activity against wild type Plasmodium falciparum infected in human O+ erythrocytes to EC50 for antimalarial activity against Plasmodium falciparum harboring PI4K Y1342I mutant infected in human O+ erythrocytes; type: functional, Erythrocyte
[24] = AUC(0 to t) in mouse at 1 mg/kg, iv; type: ADME, organism-based; design: dose 1 mg/kg; conditions: in vivo
Plasmodium falciparum [25] = experiment: Antimalarial activity against artemisinin resistant Plasmodium falciparum 803 infected in human O+ erythrocytes incubated for 72 hrs by SYBR Green 1 dye based fluorescence assay; type: functional, organism-based; conditions: Plasmodium falciparum, 803, Erythrocyte
[26] = Inhibition of recombinant His-tagged Plasmodium falciparum 3D7 PI4K expressed in baculovirus infected Sf9 cells using PI:PS as substrate incubated for 1 hr in presence of ATP by ADP-Glo kinase assay
[27] = target: Phosphatidylinositol 4-kinase beta (Homo sapiens, UniProt Q9UBF8); experiment: Inhibition of human PI4K3beta by ADP-Glo kinase assay
Chain of Phosphatidylinositol 4-kinase beta (Q9UBF8 whole entry): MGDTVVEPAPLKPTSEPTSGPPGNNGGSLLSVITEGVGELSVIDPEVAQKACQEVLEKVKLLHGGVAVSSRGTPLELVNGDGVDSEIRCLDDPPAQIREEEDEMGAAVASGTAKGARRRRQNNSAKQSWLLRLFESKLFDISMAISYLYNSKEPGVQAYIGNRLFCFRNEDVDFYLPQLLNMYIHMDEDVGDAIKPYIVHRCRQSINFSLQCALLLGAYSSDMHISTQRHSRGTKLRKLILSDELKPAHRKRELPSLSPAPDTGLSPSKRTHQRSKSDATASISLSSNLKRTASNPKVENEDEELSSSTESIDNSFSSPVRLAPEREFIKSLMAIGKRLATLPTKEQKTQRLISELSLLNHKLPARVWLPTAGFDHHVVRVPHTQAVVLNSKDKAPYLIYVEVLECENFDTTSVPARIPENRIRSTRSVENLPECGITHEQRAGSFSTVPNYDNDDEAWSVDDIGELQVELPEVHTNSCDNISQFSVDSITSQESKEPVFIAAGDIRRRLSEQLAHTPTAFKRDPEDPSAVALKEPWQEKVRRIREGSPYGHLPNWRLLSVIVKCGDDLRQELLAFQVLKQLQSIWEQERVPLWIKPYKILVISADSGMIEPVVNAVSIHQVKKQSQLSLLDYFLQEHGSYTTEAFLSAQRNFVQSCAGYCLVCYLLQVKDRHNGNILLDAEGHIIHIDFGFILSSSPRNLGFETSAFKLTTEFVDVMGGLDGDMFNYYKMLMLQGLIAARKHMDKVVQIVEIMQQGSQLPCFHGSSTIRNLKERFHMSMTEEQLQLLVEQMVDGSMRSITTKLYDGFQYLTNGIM

[28] = Cmax in Sprague-Dawley rat at 1 mg/kg, iv; type: ADME, organism-based; design: route intravenous, dose 1 mg/kg; conditions: in vivo
[29] = Tmax in Sprague-Dawley rat at 1 mg/kg, iv; type: ADME, organism-based; conditions: in vivo
Plasmodium falciparum [30] = experiment: Antimalarial activity against blood stage Plasmodium falciparum harboring PI4K Y1342I/T1360A mutant infected in human O+ erythrocytes incubated for 72 hrs by SYBR Green 1 dye based fluorescence assay; type: functional, organism-based; conditions: Erythrocyte
Plasmodium falciparum [31] = experiment: Antimalarial activity against pyrimethamine/chloroquine resistant Plasmodium falciparum C2A infected in human O+ erythrocytes incubated for 72 hrs by SYBR Green 1 dye based fluorescence assay; type: functional, organism-based; conditions: Erythrocyte
[32] = Apparent volume of distribution in mouse at 1 mg/kg, iv; type: ADME, organism-based; conditions: in vivo, read-out: Vz
Plasmodium falciparum [33] = experiment: Antimalarial activity against chloroquine resistant Plasmodium falciparum FAB9 infected in human O+ erythrocytes incubated for 72 hrs by SYBR Green 1 dye based fluorescence assay; type: functional, organism-based; conditions: FAB9, Erythrocyte
[34] = Oral bioavailability in mouse at 10 mg/kg; type: ADME, organism-based; conditions: in vivo
[35] = target: Phosphatidylinositol 4,5-bisphosphate 3-kinase catalytic subunit alpha isoform (Homo sapiens, UniProt P42336); experiment: Inhibition of human PI3Kalpha by ADP-Glo kinase assay
Chain of Phosphatidylinositol 4,5-bisphosphate 3-kinase catalytic subunit alpha isoform (P42336 whole entry, canonical isoform): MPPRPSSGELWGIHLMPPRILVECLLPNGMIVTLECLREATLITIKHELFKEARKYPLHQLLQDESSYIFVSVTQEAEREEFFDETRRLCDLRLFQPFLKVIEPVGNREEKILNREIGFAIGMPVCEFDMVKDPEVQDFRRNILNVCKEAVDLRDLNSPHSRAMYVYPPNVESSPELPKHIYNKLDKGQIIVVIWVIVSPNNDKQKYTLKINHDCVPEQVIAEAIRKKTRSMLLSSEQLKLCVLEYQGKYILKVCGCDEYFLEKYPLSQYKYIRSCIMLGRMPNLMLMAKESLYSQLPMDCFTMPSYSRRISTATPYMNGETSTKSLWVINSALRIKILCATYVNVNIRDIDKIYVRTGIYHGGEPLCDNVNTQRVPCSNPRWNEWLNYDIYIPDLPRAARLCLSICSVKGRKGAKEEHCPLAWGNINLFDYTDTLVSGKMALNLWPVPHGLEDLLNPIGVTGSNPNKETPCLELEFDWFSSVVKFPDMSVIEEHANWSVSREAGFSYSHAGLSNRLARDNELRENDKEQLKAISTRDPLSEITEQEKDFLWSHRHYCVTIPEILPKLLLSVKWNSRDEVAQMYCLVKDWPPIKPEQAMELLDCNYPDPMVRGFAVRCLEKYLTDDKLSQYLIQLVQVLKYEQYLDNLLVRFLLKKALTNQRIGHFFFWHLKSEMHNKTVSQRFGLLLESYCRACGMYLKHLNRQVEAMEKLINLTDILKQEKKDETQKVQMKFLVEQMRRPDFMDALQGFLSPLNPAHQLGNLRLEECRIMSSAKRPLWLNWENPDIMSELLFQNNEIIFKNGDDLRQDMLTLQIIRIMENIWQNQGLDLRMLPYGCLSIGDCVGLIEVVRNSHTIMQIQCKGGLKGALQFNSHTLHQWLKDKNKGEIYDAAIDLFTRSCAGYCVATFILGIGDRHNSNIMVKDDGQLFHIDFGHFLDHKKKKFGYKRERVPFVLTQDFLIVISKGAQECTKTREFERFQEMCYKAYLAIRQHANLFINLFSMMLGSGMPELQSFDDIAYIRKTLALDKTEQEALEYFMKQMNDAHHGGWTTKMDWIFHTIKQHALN

Plasmodium yoelii = experiment: Antimalarial activity against blood stage Plasmodium yoelii infected in BALB/c mouse assessed as suppression of parasitemia at 60 mg/kg/day, po administered for 7 consecutive days starting from 1 day post-infection and measured after cessation of drug treatment by Giemsa-staining based microscopic analysis; type: functional, organism-based; conditions: time 7.0 day
[36] = Half life in Sprague-Dawley rat at 1 mg/kg, iv; type: ADME, organism-based; conditions: in vivo
[37] = Selectivity index, ratio of IC50 for human PI3Kgamma to IC50 for recombinant His-tagged Plasmodium falciparum 3D7 PI4K expressed in baculovirus infected Sf9 cells
[38] = Selectivity index, ratio of IC50 for human PI3Kalpha to IC50 for recombinant His-tagged Plasmodium falciparum 3D7 PI4K expressed in baculovirus infected Sf9 cells
[39] = Half life in Sprague-Dawley rat at 10 mg/kg, po; type: ADME, organism-based; conditions: in vivo
[40] = target: Phosphatidylinositol 3-kinase catalytic subunit type 3 (Homo sapiens, UniProt Q8NEB9); experiment: Inhibition of human VPS34 by ADP-Glo kinase assay
Chain of Phosphatidylinositol 3-kinase catalytic subunit type 3 (Q8NEB9 whole entry): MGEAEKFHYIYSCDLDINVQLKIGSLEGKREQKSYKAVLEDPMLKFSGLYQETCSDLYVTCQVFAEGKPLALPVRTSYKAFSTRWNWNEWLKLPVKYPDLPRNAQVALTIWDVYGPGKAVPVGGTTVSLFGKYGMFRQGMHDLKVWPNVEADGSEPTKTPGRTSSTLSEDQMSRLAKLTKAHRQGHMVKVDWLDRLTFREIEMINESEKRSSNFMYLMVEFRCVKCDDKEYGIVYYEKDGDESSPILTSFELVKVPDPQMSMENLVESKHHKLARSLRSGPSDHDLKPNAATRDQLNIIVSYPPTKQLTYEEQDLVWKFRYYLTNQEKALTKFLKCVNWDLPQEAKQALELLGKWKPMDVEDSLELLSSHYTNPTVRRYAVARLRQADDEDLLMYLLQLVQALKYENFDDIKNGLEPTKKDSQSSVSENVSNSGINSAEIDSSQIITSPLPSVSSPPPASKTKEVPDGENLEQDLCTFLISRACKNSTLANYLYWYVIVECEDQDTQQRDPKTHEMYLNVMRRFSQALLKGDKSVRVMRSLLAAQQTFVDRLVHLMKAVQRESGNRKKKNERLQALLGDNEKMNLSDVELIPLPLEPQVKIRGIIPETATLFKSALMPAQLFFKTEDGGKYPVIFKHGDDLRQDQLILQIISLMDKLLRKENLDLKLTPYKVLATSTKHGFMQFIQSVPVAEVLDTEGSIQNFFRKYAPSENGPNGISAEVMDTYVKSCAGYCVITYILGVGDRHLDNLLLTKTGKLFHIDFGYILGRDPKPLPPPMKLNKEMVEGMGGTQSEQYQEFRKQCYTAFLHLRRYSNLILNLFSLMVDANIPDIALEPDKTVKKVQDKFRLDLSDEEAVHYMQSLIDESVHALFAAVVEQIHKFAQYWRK

Plasmodium falciparum [41] = experiment: Antimalarial activity against artemisinin and piperaquine-phosphate resistant Plasmodium falciparum 6320 infected in human O+ erythrocytes incubated for 72 hrs by SYBR Green 1 dye based fluorescence assay; type: functional, organism-based; conditions: Plasmodium falciparum, 6320, Erythrocyte
[42] = Apparent volume of distribution in Sprague-Dawley rat at 10 mg/kg, po; type: ADME, organism-based; conditions: in vivo
[43] = Cmax in mouse at 1 mg/kg, iv; type: ADME, organism-based; design: route intravenous, dose 1 mg/kg; conditions: in vivo
[44] = Tmax in Sprague-Dawley rat at 10 mg/kg, po; type: ADME, organism-based; conditions: in vivo

CNC(=O)c1cncc(-c2cnc(Cl)c(NS(=O)(=O)c3ccccc3)c2)c1
Tmax [1]: 0.19 h | AUC(0-inf) [2]: 2170 ng·h/mL | MRT last [3]: 4.3 h | EC50 (Plasmodium falciparum [4]): 0.028 µM | MRT last [5]: 4.4 h | clearance [6]: 8.33 mL/min/kg | EC50 (Plasmodium falciparum [7]): 0.044 µM | Ratio IC50 [8]: 100 | Activity (Plasmodium berghei): Active | AUC(0-inf) [9]: 292 ng·h/mL | IC50 [10]: > 10 µM | Ratio EC50 [11]: 24 | EC50 (Plasmodium falciparum [12]): 0.0102 µM | CL/F [13]: 8.33 mL/min/kg | Tmax [14]: 1.8 min | EC50 (Plasmodium falciparum [15]): 0.0251 µM | EC50 (Plasmodium falciparum [16]): 0.0241 µM | IC50 [17]: 0.165 µM | Vd [18]: 2.6 L/kg | AUC(0-t) [19]: 19300 ng·h/mL | Cmax [20]: 1540 ng/mL | IC50 [21]: 0.324 µM | Ratio IC50 [22]: 400 | Ratio EC50 [23]: 2 | AUC(0-t) [24]: 327 ng·h/mL | EC50 (Plasmodium falciparum [25]): 0.0309 µM | IC50 [26]: 0.0009 µM | IC50 [27]: 0.433 µM | Cmax [28]: 5010 ng/mL | Tmax [29]: 1.2 min | EC50 (Plasmodium falciparum [30]): 0.248 µM | EC50 (Plasmodium falciparum [31]): 0.028 µM | Vd [32]: 12.1 L/kg | EC50 (Plasmodium falciparum [33]): 0.0236 µM | bioavailability [34]: 80% | IC50 [35]: 0.191 µM | Activity (Plasmodium yoelii): inactive | half-life [36]: 3.5 h | Ratio IC50 [37]: 100 | Ratio IC50 [38]: 100 | half-life [39]: 2.9 h | IC50 [40]: 0.681 µM | EC50 (Plasmodium falciparum [41]): 0.0247 µM | Vz [42]: 2.2 L/kg | Cmax [43]: 718 ng/mL | Tmax [44]: 0.83 h
